Results on 23 compounds are retold here after PubChem BioAssay AID256 (DTP/NCI, 2004).

In the assay the test system is CD2F1 mice, L1210 leukemia ip, survival T/C. Kind of assay: NCI In Vivo Anticancer Drug Screen. Data for tumor model L1210 Leukemia (intraperitoneal) in CD2F1 (CDF1) mice. The following applies: endpoint: mean survival time, higher = longer survival. Summed up: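 Vehicle-treated tumor-bearing mice served as controls (C) for compound-treated mice (T). Reported figure is T divided by C.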

[1] abbreviates: dose: 50.0 mg/kg/injection, schedule: Q01DX009 (ip), vehicle: saline with Tween-80.
Where [2] appears, read: dose: 200.0 mg/kg/injection, schedule: Q01DX009 (ip), vehicle: saline with Tween-80.
Setting [3] is: dose: 200.0 mg/kg/injection, schedule: Q04DX003 (ip), vehicle: saline with Tween-80.
The mark [4] stands for this setting: dose: 100.0 mg/kg/injection, schedule: Q04DX003 (ip), vehicle: saline with Tween-80.
Where [5] appears, read: dose: 75.0 mg/kg/injection, schedule: Q01DX001 (ip), vehicle: saline.
Where [6] appears, read: dose: 150.0 mg/kg/injection, schedule: Q01DX001 (ip), vehicle: saline.
Where [7] appears, read: dose: 300.0 mg/kg/injection, schedule: Q01DX001 (ip), vehicle: saline.
The mark [8] stands for this setting: dose: 100.0 mg/kg/injection, schedule: Q01DX009 (ip), vehicle: saline.
Setting [9] is: dose: 100.0 mg/kg/injection, schedule: Q01DX009 (ip), vehicle: saline with Tween-80.
The mark [10] stands for this setting: dose: 100.0 mg/kg/injection, schedule: Q01DX001 (ip), vehicle: saline with Tween-80.
The mark [11] stands for this setting: dose: 200.0 mg/kg/injection, schedule: Q01DX001 (ip), vehicle: saline with Tween-80.
The mark [12] stands for this setting: dose: 400.0 mg/kg/injection, schedule: Q01DX001 (ip), vehicle: saline with Tween-80.
[13] abbreviates: dose: 100.0 mg/kg/injection, schedule: Q01DX001 (ip), vehicle: saline.
[14] abbreviates: dose: 200.0 mg/kg/injection, schedule: Q01DX001 (ip), vehicle: saline.
Where [15] appears, read: dose: 400.0 mg/kg/injection, schedule: Q01DX001 (ip), vehicle: saline.
Setting [16] is: dose: 50.0 mg/kg/injection, schedule: Q04DX003 (ip), vehicle: saline.

Several values for one entry are separate records, joined by “and”; a condition that tells them apart may be missing. Equal values may be shown once. Toxic doses and inconclusive results are not listed.

Regarding `CC(C#N)(Nc1ccccc1)c1ccc(Cl)cc1` (centres undefined), the T/C by setting is: under setting [1], 86 % of control; under setting [2], 97 % of control; under setting [3], 87 % of control.
Regarding `O=C1OC(c2ccccc2)(c2ccccn2)c2ccccc21` (centres undefined), the T/C by setting is: under setting [4], 90 % of control; under setting [3], 88 % of control; (dose: 400.0 mg/kg/injection, schedule: Q04DX003 (ip), vehicle: saline with Tween-80) 91 % of control.
For `CCC1COCC1Cc1cncn1C` (centres undefined), the T/C under setting [5] is 97 % of control, the T/C under setting [6] was 101 % of control and the T/C under setting [7] was 100 % of control.
For `CC(C)(C)NC(=O)NCCCN1CCOCC1`, the T/C runs as follows: under setting [8], 102 % of control; (dose: 200.0 mg/kg/injection, schedule: Q01DX009 (ip), vehicle: saline) 98 % of control; (dose: 400.0 mg/kg/injection, schedule: Q01DX009 (ip), vehicle: saline) 91 % of control.
Consider `CN(C)N=Nc1ccc(C#N)cc1C(N)=O`, for which the T/C reads like this: (dose: 18.8 mg/kg/injection, schedule: Q01DX009 (ip), vehicle: Klucel (hydroxypropylcellulose) (HPC)) 106 % of control; (dose: 37.5 mg/kg/injection, schedule: Q01DX009 (ip), vehicle: Klucel (hydroxypropylcellulose) (HPC)) 119 % of control; (dose: 150.0 mg/kg/injection, schedule: Q01DX009 (ip), vehicle: Klucel (hydroxypropylcellulose) (HPC)) 101 % of control.
Take `CS(=O)(=O)[O-].CS(=O)(=O)[O-].NC1CCCCC1N.[Pt+4]` (centres undefined): the T/C (dose: 0.16 mg/kg/injection, schedule: Q04DX003 (ip), vehicle: other) was 124 % of control; the T/C (dose: 0.62 mg/kg/injection, schedule: Q01DX009 (ip), vehicle: dextrose) is 119 % of control; the T/C (dose: 5.0 mg/kg/injection, schedule: Q01DX009 (ip), vehicle: dextrose) was 93 % of control.
For the compound `CCOC(=O)C1CC1C(=O)OC` (centres undefined), the T/C is, setting by setting: under setting [1], 90 % of control; under setting [9], 88 % of control; under setting [2], 92 % of control.
Turning to `CC12CCC3C4CCC(=O)C(CCC(=O)O)=C4CCC3(CO1)C2` (centres undefined), the T/C reads like this: under setting [10], 102 % of control; under setting [11], 95 % of control; under setting [12], 94 % of control.
With `N#CC(=C1C=CC(=NO)C=C1)c1ccccc1`, the T/C is 93 % of control under setting [1]; 100 % of control under setting [9]; 97 % of control under setting [4]; 100 % of control under setting [2]; 96 % of control under setting [3].
For the compound `CC(=O)Oc1ccc(CC2N=C(c3ccccc3)OC2=O)cc1` (centres undefined), the T/C under setting [1] is 87 % of control and the T/C under setting [9] is 91 % of control.
With `CN(C)N=Nc1cccc(Cl)c1`, the T/C runs as follows: (dose: 79.0 mg/kg/injection, schedule: Q01DX009 (ip), vehicle: Klucel (hydroxypropylcellulose) (HPC)) 111 % of control; (dose: 118.0 mg/kg/injection, schedule: Q01DX009 (ip), vehicle: Klucel (hydroxypropylcellulose) (HPC)) 108 % of control; (dose: 177.0 mg/kg/injection, schedule: Q01DX009 (ip), vehicle: Klucel (hydroxypropylcellulose) (HPC)) 123 % of control; (dose: 266.0 mg/kg/injection, schedule: Q01DX009 (ip), vehicle: Klucel (hydroxypropylcellulose) (HPC)) 108 % of control.
Take `CC(=O)OC1(/N=[N+](/C)[O-])CCCC1`: the T/C was 167 % of control (dose: 50.0 mg/kg/injection, schedule: Q04DX003 (ip), vehicle: saline with Tween-80) and 95 % of control under setting [4].
Turning to `O=Cc1ccc(O)c2ncccc12`, the T/C (dose: 75.0 mg/kg/injection, schedule: Q01DX001 (ip), vehicle: other) is 101 % of control; the T/C (dose: 150.0 mg/kg/injection, schedule: Q01DX001 (ip), vehicle: other) is 95 % of control; the T/C (dose: 300.0 mg/kg/injection, schedule: Q01DX001 (ip), vehicle: other) was 110 % of control.
Consider `CC(C)OC(=O)N(C(=O)OC(C)C)c1ccccc1`, for which the T/C (dose: 100.0 mg/kg/injection, schedule: Q04DX002 (ip), vehicle: saline with Tween-80) was 94 % of control; the T/C (dose: 200.0 mg/kg/injection, schedule: Q04DX002 (ip), vehicle: saline with Tween-80) was 108 % of control; the T/C (dose: 400.0 mg/kg/injection, schedule: Q04DX002 (ip), vehicle: saline with Tween-80) was 94 % of control.
For `N=C(N)c1ccccc1`, the T/C by setting is: under setting [13], 94 % of control; under setting [14], 100 % of control; under setting [15], 94 % of control.
Consider `N#Cc1cccc(/C=C/c2ccc(S(=O)(=O)F)cc2)c1`, for which the T/C was 95 % of control and 102 % of control (dose: 100.0 mg/kg/injection, schedule: Q01DX001 (ip), vehicle: other); 92 % of control and 98 % of control (dose: 100.0 mg/kg/injection, schedule: Q04DX002 (ip), vehicle: other); 100 % of control and 111 % of control (dose: 100.0 mg/kg/injection, schedule: Q04DX003 (ip), vehicle: other); 88 % of control and 102 % of control (dose: 200.0 mg/kg/injection, schedule: Q01DX001 (ip), vehicle: other); 101 % of control and 107 % of control (dose: 200.0 mg/kg/injection, schedule: Q04DX002 (ip), vehicle: other); 99 % of control and 105 % of control (dose: 200.0 mg/kg/injection, schedule: Q04DX003 (ip), vehicle: other). Moreover, the T/C (dose: 400.0 mg/kg/injection, schedule: Q01DX001 (ip), vehicle: other) was 92 % of control and 103 % of control; the T/C (dose: 400.0 mg/kg/injection, schedule: Q04DX002 (ip), vehicle: other) was 93 % of control and 107 % of control.
With `COc1ccc(C2=NNC(=O)CC2)cc1OC`, the T/C is, setting by setting: (dose: 12.5 mg/kg/injection, schedule: Q04DX003 (ip), vehicle: saline) 107 % of control; (dose: 25.0 mg/kg/injection, schedule: Q04DX003 (ip), vehicle: saline) 115 % of control; under setting [16], 98 % of control.
For `COC(=O)CC(CC(=O)OC)N1CC=CC1`, the T/C is 100 % of control under setting [13], 98 % of control under setting [14] and 108 % of control under setting [15].
With `CNc1nc2cc(C)c(C)cc2n1C1OC(CO)C(O)C1O` (centres undefined), the T/C reads like this: under setting [5], 111 % of control; under setting [6], 103 % of control; under setting [7], 108 % of control.
For the compound `COc1ccc(C(CO)CC(=O)NCCN(C)C)cc1` (centres undefined), the T/C is 100 % of control (dose: 100.0 mg/kg/injection, schedule: Q04DX002 (ip), vehicle: saline) and 107 % of control (dose: 200.0 mg/kg/injection, schedule: Q04DX002 (ip), vehicle: saline).
On to `CCc1c2cc(OC)c(OC)cc2cc2c3cc(OC)c(OC)cc3cc[n+]12` (tested in a mixture with another compound), for which the T/C by setting is: (dose: 14.6 mg/kg/injection, schedule: Q01DX009 (ip), vehicle: saline with Tween-80) 120 % of control; (dose: 33.0 mg/kg/injection, schedule: Q01DX009 (ip), vehicle: saline with Tween-80) 117 % of control; (dose: 50.0 mg/kg/injection, schedule: Q01DX009 (ip), vehicle: saline) 122 % of control; under setting [16], 122 % of control; under setting [8], 104 % of control; (dose: 100.0 mg/kg/injection, schedule: Q04DX003 (ip), vehicle: saline) 121 % of control and 123 % of control. Also, the T/C reads like this: (dose: 200.0 mg/kg/injection, schedule: Q04DX003 (ip), vehicle: saline) 101 % of control; (dose: 400.0 mg/kg/injection, schedule: Q04DX003 (ip), vehicle: saline) 121 % of control and 98 % of control.
With `COc1ccc(SSc2ccc(OC)cc2)cc1`, the T/C reads like this: under setting [13], 100 % of control; under setting [14], 103 % of control; under setting [15], 97 % of control.
Regarding `CCCCCCCNC(=O)Nc1ccc(Cl)c(Cl)c1`, the T/C under setting [10] was 103 % of control, the T/C under setting [11] is 100 % of control and the T/C under setting [12] was 103 % of control.
